Assay results as given in patent US20070219180A1, “Muscle Relaxtion Accelerator and Therapeutic Agent for Muscular Tissue Diseases Such as Muscle Relaxation Failure” (priority 2004, published 2007).

Assays:
[1] = biological target: T1, troponin I and the actin-tropomyosin complex (Homo sapiens, UniProt P19429); test: Experiments 6 and 7: affinity of troponin I and the actin-tropomyosin complex (co-precipitation at defined Ca concentration); assay type: binding
T1 construct: human myocardium-derived troponin I with a molecular weight of 24 kDa; purchased Calbiochem Inc (troponin I); Abcam PLC (troponin C); SIGMA (actin, tropomyosin); host or cells: troponin I from human myocardium
Procedure: A solution of 0.4 μg of troponin I (Calbiochem Inc) and 0.54 μg of troponin C (Abcam PLC) was added to 23 μl of distilled water, distributed to 4 test tubes, and centrifuged at 100,000 g for 1 hour (HITACHI Himac 120FC), and 20 μl of the resulting supernatant was collected and stored at 4° C. Then, 50 μl of 600 mM KCl solution, 50 μl of 200 mM MOPS (3-morpholinopropanesulfonic acid) [3-N (morpholino) propanesulfonic acid] (DOJINDO) solution, 50 μl of 20 mM MgCl2 solution, 5 μl of 10 mg/ml pepstatin A (SIGMA) solution, and 50 μl of 150 mM 2-mercaptoethanol (SIGMA) were added as a reaction solution to 99.4 μl of distilled water, and distributed to another 4 test tubes. Next, 3.2 μl of 1 mg/ml actin (SIGMA) and 2.4 μl of 1 mg/ml tropomyosin (SIGMA) were added and mixed, and the mixture was then centrifuged at 2000 g for 5 minutes at 25° C. using a centrifuge (HITACHI Himac CF7D2). The resulting supernatant was put into 4 new test tubes, 50 μl of 50 mM ATP (adenosine 5′-triphosphate) solution was added, and the solution was incubated at 25° C. with mixing for 30 minutes.
Next, 20 μl of the 100,000 g supernatant of troponin I and troponin C which was previously prepared was added to each test tube, and incubated at 25° C. with mixing for 30 minutes. Distilled water alone or 50 μl of a test solution in which the final concentration of the compound was adjusted to 10^−7, 10^−6 and 10^−5 M was added, and the resulting solution was incubated at 25° C. with mixing for 30 minutes.
[…] The solution was incubated at 25° C. with intermittent mixing for 60 minutes, and then centrifuged at 100,000 g for 120 minutes at 25° C. using a centrifuge (HITACHI Himac 120FC: brand name).
After centrifugation, the supernatant was removed, 1 ml of the reaction liquid (excluding Ca^2+ and the drug) was gently added so as not to suspend any precipitate, and the precipitate was again removed by suction; the procedure was repeated twice and the precipitate washed 3 times in total.
The washing solution was removed completely, 20 μl of a sample buffer for polyacrylamide gel electrophoresis (SDS-PAGE) was added and mixed well, the precipitate was suspended and heated for 5 minutes at 95° C., and then poured into a PAG MINI “No. 1” 10/20 gel (Daiichi Pure Chemicals Co., Ltd) and electrophoresized for about 1 hour at 40 mA. After electrophoresis, the suspension was silver-stained using “Daiichi” 2D-silver staining reagent (Daiichi Pure Chemicals Co., Ltd), and washed and dried. Finally, the suspension was scanned (EPSON ES-8500 scanner: brand name) and analyzed (Image J software: brand name).
In this experiment, at a calcium concentration in the test tube of 10^−6 M, the amount of troponin I precipitated in the absence of the compound was set at 1.0. Relatively, the amount of co-precipitation in the presence of 10^−7, 10^−6 and 10^−5 M concentrations of the compound was 1.4, 3.4, and 5.4, respectively; therefore, it was confirmed that the amount of troponin I precipitate increased with an increase in the compound concentration. The actin used in this experiment was swine skeletal muscle-derived actin with a molecular weight of 43 kDa, and was purchased from SIGMA. Tropomyosin used in this experiment was gizzard-derived tropomyosin with a molecular weight of 36 kDa, and was purchased from SIGMA. Troponin I used in this experiment was human myocardium-derived troponin I with a molecular weight of 24 kDa, and was purchased from Calbiochem Inc. Troponin C used in this experiment was human myocardium recombinant-derived troponin C with a molecular weight of 18 kDa, and was purchased from Abcam PLC. These proteins were separated by SDS-polyacrylamide gel electrophoresis and each band was clearly identifiable. […]

myosin light chains = test: Experiment 5: amount of precipitate of myosin light chains; assay type: binding, swine; settings: concentration of the compound 10^−3 mol
Procedure: In this experiment, the effects of the compound were studied on the amount of precipitate of myosin light chains, which is a component of the troponin test sample used in Experiment 4.
A sample buffer for polyacrylamide gel electrophoresis (SDS-PAGE) was added to each washed test precipitate, which was prepared in the manner described above, and mixed well to suspend the test precipitate. The resulting suspension was electrophoresed on a gel (PAG MINI “No. 1” 10/20) for about 1 hour at 40 mA. After electrophoresis, the suspension was silver-stained using “Daiichi” 2D-silver staining reagent (Daiichi Pure Chemicals Co., Ltd), and washed with distilled water and dried. The amount of precipitate in each silver-stained protein band obtained by gel electrophoresis was quantitated using a densitometer. […] The protein band from gel electrophoresis was stained using a reagent for mass spectrometry (silver staining reagent for mass spectrometry, Wako Pure Chemical Industries Ltd.), and a peptide fragment obtained from the protein that gave the band in gel electrophoresis was analyzed using high performance liquid chromatography (MAGIC2002, Michrom BioResources, Inc, USA).

[2] = Ca 10^−6 M, the compound 10^−5 M

Amount of precipitate of troponin I, Ratio (Ca 10^−8 M = 1.0) ([1]; Ca 10^−5 M, the compound 10^−5 M): 0.78 | Amount of precipitate of troponin I, Ratio (Ca 10^−8 M = 1.0) [1, 2]: 0.81 | Amount of precipitate of troponin I, Ratio (no compound = 1.0) [1, 2]: 5.4 | Amount of precipitate of troponin I, Ratio (no compound = 1.0) ([1]; Ca 10^−6 M, the compound 10^−6 M): 3.4 | Amount of precipitate of troponin I, Ratio (no compound = 1.0) ([1]; Ca 10^−6 M, the compound 10^−7 M): 1.4 | Amount of precipitate of troponin I, Ratio (Ca 10^−8 M = 1.0) ([1]; Ca 10^−7 M, the compound 10^−5 M): 0.94 | Amount of precipitate of troponin I, Ratio (Ca 10^−8 M = 1.0) ([1]; Ca 10^−8 M, the compound 10^−5 M (reference set at 1.0)): 1.0
SMILES: COc1ccc2c(c1)CN(C(=O)CCN1CCC(Cc3ccccc3)CC1)CCS2 [the compound, 4-[3-(4-benzylpiperidine-1-yl)propionyl]-7-methoxy-2,3,4,5-tetrahydro-1,4-benzothiazepine]
The amount of precipitate of myosin light chains (ratio to Test 1 = 1.0) (myosin light chains; Test 3: Ca^2+ concentration 0 mol): 1.5 | The amount of precipitate of myosin light chains (ratio to Test 1 = 1.0) (myosin light chains; Test 4: Ca^2+ concentration 10^−5 mol): 1.4
